Assay results from ChEMBL document CHEMBL1177886, “Synthesis and biological evaluation of a novel series of 2,2-bisaminomethylated aurone analogues as anti-inflammatory and antimicrobial agents” (Eur J Med Chem, 2010).
Values after ≈ are worked out from the molar mass of the structure shown.

What was measured:
[1] = test system: Bacillus subtilis; experiment: Antibacterial activity against Bacillus subtilis NCIM 2546 after 24 hrs by disc diffusion method; format: functional; conditions: for MIC: Bacillus subtilis, NCIM 2546, 24 h
[2] = test system: Escherichia coli; experiment: Antibacterial activity against Escherichia coli NCIM 2065 after 24 hrs by disc diffusion method; format: functional; conditions: for MIC: Escherichia coli, NCIM 2065, 24 h
[3] = test system: Staphylococcus aureus; experiment: Antibacterial activity against Staphylococcus aureus NCIM 2120 after 24 hrs by disc diffusion method; format: functional; conditions: for MIC: Staphylococcus aureus, NCIM 2120, 24 h
[4] = test system: Klebsiella pneumoniae; experiment: Antibacterial activity against Klebsiella pneumoniae NCIM 5082 after 24 hrs by disc diffusion method; format: functional; conditions: for MIC: Klebsiella pneumoniae, NCIM 5082, 24 h
[5] = test system: Proteus vulgaris; experiment: Antibacterial activity against Proteus vulgaris NCIM 2813 after 24 hrs by disc diffusion method; format: functional; conditions: for MIC: Proteus vulgaris, NCIM 2813, 24 h
[6] = test system: Aspergillus fumigatus; experiment: Antifungal activity against Aspergillus fumigatus NCIM 902 after 72 hrs by disc diffusion method; format: functional; conditions: for MIC: Aspergillus fumigatus, NCIM 902, 72 h
[7] = test system: Aspergillus niger; experiment: Antifungal activity against Aspergillus niger NCIM 545 after 72 hrs by disc diffusion method; format: functional; conditions: for MIC: Aspergillus niger, NCIM 545, 72 h
[8] = test system: Trichoderma viride; experiment: Antifungal activity against Trichoderma viride TT after 72 hrs by disc diffusion method; format: functional; conditions: for MIC: Trichoderma viride, TT, 72 h
[9] = test system: Candida albicans; experiment: Antifungal activity against Candida albicans NCIM 3100 after 72 hrs by disc diffusion method; format: functional; conditions: for MIC: Candida albicans, NCIM 3100, 72 h
[10] = test system: Penicillium chrysogenum; experiment: Antifungal activity against Penicillium chrysogenum NCIM 707 after 72 hrs by disc diffusion method; format: functional; conditions: for MIC: Penicillium chrysogenum, NCIM 707, 72 h
[11] = test system: THP-1; experiment: Antiinflammatory activity in human THP1 cells assessed as inhibition of LPS-induced TNFalpha production at 10 uM treated 30 mins before LPS challenge measured after 24 hrs by ELISA relative to control; format: functional
[12] = test system: THP-1; experiment: Antiinflammatory activity in human THP1 cells assessed as inhibition of LPS-induced IL-6 production at 10 uM treated 30 mins before LPS challenge measured after 24 hrs by ELISA relative to control; format: functional
[13] = Cytotoxicity against human THP-1 cells at 10 uM; conditions: THP-1, 10 µM
[14] = test system: Bacillus subtilis; experiment: Antibacterial activity against Bacillus subtilis after 24 hrs by disc diffusion method
[15] = test system: Bacillus subtilis; conditions: NCIM 2546
[16] = test system: Escherichia coli; conditions: NCIM 2065
[17] = test system: Staphylococcus aureus; conditions: NCIM 2120
[18] = test system: Klebsiella pneumoniae; conditions: NCIM 5082
[19] = test system: Proteus vulgaris; conditions: NCIM 2813
[20] = test system: THP-1; experiment: Antiinflammatory activity in human THP1 cells assessed as inhibition of LPS-induced TNFalpha production at 1 uM treated 30 mins before LPS challenge measured after 24 hrs by ELISA relative to control; format: functional
[21] = test system: THP-1; experiment: Antiinflammatory activity in human THP1 cells assessed as inhibition of LPS-induced IL-6 production at 1 uM treated 30 mins before LPS challenge measured after 24 hrs by ELISA relative to control; format: functional

Row | Compound | MIC [1] [µg/mL] | MIC [2] [µg/mL] | MIC [3] [µg/mL] | MIC [4] [µg/mL] | MIC [5] [µg/mL] | inhibition zone (IZ) [6] [mm] | MIC [6] [µg/mL] | MIC [7] [µg/mL] | MIC [8] [µg/mL] | MIC [9] [µg/mL] | inhibition zone (IZ) [10] [mm] | MIC [10] [µg/mL] | inhibition at 10 µM [11] [%] | inhibition at 10 µM [12] [%] | inhibition zone (IZ) [1] [mm] | inhibition zone (IZ) [3] [mm] | inhibition zone (IZ) [5] [mm] | inhibition zone (IZ) [7] [mm] | inhibition zone (IZ) [8] [mm] | inhibition zone (IZ) [9] [mm] | further results
1 | CCN(C)CC1(CN(C)CC)Oc2cc(OC)cc(OC)c2C1=O | > 100 | > 100 | > 100 | > 100 | > 100 | 14 | 50 (≈ 149 µM) | > 100 | > 100 | > 100 | 15 | 50 (≈ 149 µM) | – | – | – | – | – | – | – | – | –
2 | COc1cc(OC)c2c(c1)OC(CN1CCOCC1)(CN1CCOCC1)C2=O | 25 (≈ 63.7 µM) | 25 (≈ 63.7 µM) | 50 (≈ 127 µM) | > 100 | 25 (≈ 63.7 µM) | 18 | 25 (≈ 63.7 µM) | 25 (≈ 63.7 µM) | 25 (≈ 63.7 µM) | 50 (≈ 127 µM) | 23 | 25 (≈ 63.7 µM) | 89 | 100 | 16 | 15 | 22 | 24 | 15 | 15 | inhibition zone (IZ) [2]: 16 mm; Activity [13]: 66%
3 | CCCCN(CCCC)CC1(CN(CCCC)CCCC)Oc2cc(OC)cc(OC)c2C1=O | 25 (≈ 52.4 µM) | 25 (≈ 52.4 µM) | 25 (≈ 52.4 µM) | 25 (≈ 52.4 µM) | 25 (≈ 52.4 µM) | 22 | 25 (≈ 52.4 µM) | 25 (≈ 52.4 µM) | 25 (≈ 52.4 µM) | 25 (≈ 52.4 µM) | 24 | 25 (≈ 52.4 µM) | 17 | 37 | 21 | 18 | 22 | 26 | 16 | 17 | inhibition zone (IZ) [4]: 21 mm; Activity [13]: 65%; inhibition zone (IZ) [14]: 18 mm
4 | COc1cc(OC)c2c(c1)OC(CN1CCN(C)CC1)(CN1CCN(C)CC1)C2=O | 50 (≈ 119 µM) | 50 (≈ 119 µM) | > 100 | > 100 | 25 (≈ 59.7 µM) | 15 | 50 (≈ 119 µM) | 50 (≈ 119 µM) | – | > 100 | 14 | 50 (≈ 119 µM) | 76 | 97 | 14 | – | 16 | 14 | – | – | inhibition zone (IZ) [2]: 14 mm; Activity [13]: 29%
5 | COc1cc(OC)c2c(c1)OC(CN(C)C)(CN(C)C)C2=O | 50 (≈ 162 µM) | 50 (≈ 162 µM) | 50 (≈ 162 µM) | 50 (≈ 162 µM) | 50 (≈ 162 µM) | 18 | 25 (≈ 81.1 µM) | 50 (≈ 162 µM) | 25 (≈ 81.1 µM) | 25 (≈ 81.1 µM) | 15 | 50 (≈ 162 µM) | – | – | 14 | 14 | 15 | 16 | 15 | 16 | inhibition zone (IZ) [4]: 15 mm; inhibition zone (IZ) [14]: 15 mm
6 | CCN1CCN(CC2(CN3CCN(CC)CC3)Oc3cc(OC)cc(OC)c3C2=O)CC1 | 50 (≈ 112 µM) | 50 (≈ 112 µM) | 25 (≈ 56 µM) | 25 (≈ 56 µM) | 50 (≈ 112 µM) | 14 | 50 (≈ 112 µM) | 50 (≈ 112 µM) | 50 (≈ 112 µM) | 50 (≈ 112 µM) | 16 | 25 (≈ 56 µM) | – | – | 16 | 15 | 14 | 14 | 13 | 13 | inhibition zone (IZ) [2]: 16 mm; inhibition zone (IZ) [4]: 17 mm
7 | OC(Cn1cncn1)(Cn1cncn1)c1ccc(F)cc1F [FLUCONAZOLE] | – | – | – | – | – | 21 | 25 (≈ 81.6 µM) | 25 (≈ 81.6 µM) | 25 (≈ 81.6 µM) | 25 (≈ 81.6 µM) | 24 | 25 (≈ 81.6 µM) | – | – | – | – | – | 24 | 18 | 24 | –
8 | GENTAMICIN | – | – | – | – | – | – | – | – | – | – | – | – | – | – | – | – | – | – | – | – | IZ [15]: 21 mm; MIC [15]: 25 µg/mL; MIC [16]: 25 µg/mL; MIC [17]: 25 µg/mL; IZ [18]: 24 mm; MIC [18]: 25 µg/mL; IZ [19]: 24 mm; MIC [19]: 25 µg/mL
9 | COc1cc(OC)c2c(c1)OC(CN1CCCCC1)(CN1CCCCC1)C2=O | 25 (≈ 64.3 µM) | 25 (≈ 64.3 µM) | 25 (≈ 64.3 µM) | 25 (≈ 64.3 µM) | 50 (≈ 129 µM) | 16 | 50 (≈ 129 µM) | 25 (≈ 64.3 µM) | 50 (≈ 129 µM) | > 100 | 18 | 25 (≈ 64.3 µM) | 35 | 82 | 18 | 16 | 15 | 17 | 14 | – | inhibition zone (IZ) [4]: 18 mm; Activity [13]: 21%
10 | C[C@@H]1C[C@H]2[C@@H]3CCC4=CC(=O)C=C[C@]4(C)[C@@]3(F)[C@@H](O)C[C@]2(C)[C@@]1(O)C(=O)CO [DEXAMETHASONE] | – | – | – | – | – | – | – | – | – | – | – | – | – | – | – | – | – | – | – | – | inhibition at 1 µM [20]: 69%; inhibition at 1 µM [21]: 90%
11 | CCN(CC)CC1(CN(CC)CC)Oc2cc(OC)cc(OC)c2C1=O | 25 (≈ 68.6 µM) | 25 (≈ 68.6 µM) | 25 (≈ 68.6 µM) | 25 (≈ 68.6 µM) | 25 (≈ 68.6 µM) | 17 | 25 (≈ 68.6 µM) | 25 (≈ 68.6 µM) | 25 (≈ 68.6 µM) | 25 (≈ 68.6 µM) | 15 | 50 (≈ 137 µM) | 28 | 74 | 18 | 16 | 17 | 17 | 16 | 16 | inhibition zone (IZ) [4]: 17 mm; Activity [13]: 37%; inhibition zone (IZ) [14]: 17 mm
12 | COc1cc(OC)c2c(c1)OC(CN1CCCC1)(CN1CCCC1)C2=O | 25 (≈ 69.4 µM) | 25 (≈ 69.4 µM) | 25 (≈ 69.4 µM) | 25 (≈ 69.4 µM) | 25 (≈ 69.4 µM) | 22 | 25 (≈ 69.4 µM) | 25 (≈ 69.4 µM) | 50 (≈ 139 µM) | 50 (≈ 139 µM) | 16 | 25 (≈ 69.4 µM) | 100 | 100 | 20 | 15 | 22 | 21 | 15 | 14 | inhibition zone (IZ) [4]: 20 mm; Activity [13]: 83%; inhibition zone (IZ) [14]: 18 mm
